Reference: patent US6582714B1, “Article for insert control by passive evaporation of an active ingredient” (priority 1995, dated 2003)

Experiments:
[1] = tested on: A. aegypti mosquitoes; experiment: Activity index calculation (volatility index x weight index); details: volatility index multiplied by weight index; DEET = 1.00
Experimental: The “activity index” is obtained by the multiplying the volatility index and the weight index. The activity index is an attempt to predict the combined effect of volatility and potency by weight in the usefulness of an insect control active ingredient for insect control of flying insects by passive evaporation. The following activity indices were calculated from the volatility and weight indices given, above: […]

[2] = tested on: A. aegypti mosquitoes; experiment: Chamber test, first series (box fan), mosquito repellency and knock-down; type: in vivo; details: at least 50% repellency within 20 minutes with not more than a gram
Excerpt: The chamber test protocol was developed to realistically model actual use conditions for the insect control article of the invention. A closed, generally featureless, approximately 28 m^3, box-like test chamber is used, the size of a small room. Six mosquito knock-down cages are distributed vertically within the test chamber, suspended from poles adjacent to opposite test chamber side walls, where they can be observed from outside the test chamber through chamber windows. Mosquitoes in the cages are observed during a test to evaluate the ability of a material being tested to knock down mosquitoes. An insect “knocked down” is one that is incapable of flying and usually is moribund in appearance. The insect may or may not actually be dead. The knock-down cages are cylindrical, approximately 6 cm long and 8 cm in diameter, and have screened but otherwise open ends.
Two repellency mosquito cages are also provided. The repellency cages are box-like screened cages, approximately 73 cm long and 16 cm square in cross section. All of the walls of the repellency cages are screened but otherwise generally open. Each repellency cage is divided by a clear plastic partition into a first holding area, which occupies approximately 45 cm of the length of the cage, and a second holding area, which occupies the remaining 28 cm. The plastic partition has a 4 cm diameter hole in its center that provides the only route by which mosquitoes may pass between the two holding areas. The repellency cages are mounted in a test chamber wall, with the plastic partition located in the plane of the test chamber wall, and are so oriented that the first holding area projects inwardly, into the test chamber, while the second holding area projects through the test chamber wall, out into normal room air.
A mouse cage essentially identical to a mosquito knock-down cage is mounted on the end of the first holding chamber of each repellency test cage that faces toward the interior of the test chamber. The mouse cage is separated from the repellency cage only by a mosquito-proof screen. One mouse is placed in the mouse cage during a test to provide an attractant for mosquitoes being held in the repellency test cage. Mosquitoes in the first holding area of a repellency cage thus are attracted toward the mouse, on the one hand, and repelled by the insect control article being tested, on the other hand.
When a test is run, fifty female mosquitoes are placed in the first holding area of each mosquito cage, with the partition hole closed by a removable door. Ten female mosquitoes are placed in each knock-down cage. The insect control article to be tested is placed centrally within the test chamber and the air flow is initiated. At timed intervals up to a total testing period of two hours, each knock-down cage and each repellency cage is visually examined, and the location, number, and condition of the mosquitoes are noted. The number of mosquitoes that have been driven to the second holding area provides a measure of the repellency of the insect control article being tested. The number of mosquitoes knocked down in the knock-down cages is also recorded. The general success of an insect control article is judged by both the mosquitoes repelled and those knocked down, in that both effects reduce the total number of mosquitoes available for biting.
Two series of tests were run using the chamber test protocol to evaluate the effect of insect control articles made in accordance with the invention. […]

[3] = tested on: A. aegypti mosquitoes; experiment: Olfactometer test (repellency from target air stream); type: in vivo; details: for mg to reach RD90: dose at which 90% of control population driven from target, 28 x 10 cm filter paper, female mosquitoes; for WEIGHT INDEX: ratio of weight of ingredient versus weight of DEET to achieve RD90, 25° C.
Excerpt: The olfactometer test provides a means for measuring the effect of a volatile active ingredient on flying insects under precisely controlled conditions. Mosquitoes are used as the test insect. In this and the other Examples, below, the mosquitoes were A. aegypti. The olfactometer used for the olfactory tests described below generates two uniform, laminar flow air streams. These air streams consist of a target air stream superimposed upon and centered within a carrier air stream.
The olfactometer provides a square testing surface with an area of 929 cm^2. The testing area consists of a circular target area of 42 cm^2 centered on a square background surface area of 887 cm^2. In the tests described, a 200 ml/min flow of carbon dioxide was introduced into the carrier air stream to activate the mosquitoes. […] The flow rate of the carrier air stream was 300 to 350 liters/min. […] Elevated temperature and humidity at the level described for the target air stream are known to be attractive to mosquitoes. The flow rate of the target air stream was 12 liters/min.
The olfactometer has an air flow duct through which the carrier air flow strewn passes. A glass cylinder having one closed and one open end, an internal diameter of 6 cm and a depth of 14 cm is located within the air flow duct, with the longitudinal axis of the glass cylinder oriented parallel to the direction of flow of the carrier air flow stream, with the open end of the cylinder pointing down stream. The target air stream is generated by releasing a flow of temperature and humidity conditioned air into the glass cylinder near its closed end, from which point the air flows the length of the glass cylinder to exit at its open end.
Active insect control ingredients to be tested are impregnated in a filter paper test substrate (Grade 615 from VWR Scientific Inc.) having a length of 28 cm and a width of 10 cm. The filter paper test substrate is folded into a fluted cylinder and inserted coaxially within the glass cylinder to rest at a location between the point where the air is released into the glass cylinder and the open end of the glass cylinder. By this arrangement, the target air stream is caused to pass over the surface of the filter paper test substrate so that any active insect control ingredient present in the filter paper test substrate may evaporate into the target air stream before the target air stream exits the glass cylinder to continue, embedded within the flow of the carrier air stream.
Cubic test cages having 30.5 cm edges were constructed of four glass panels, with two opposing sides of the cubic test cages being open. One open side was designated the test panel and was covered with an airflow-transmitting, mosquito-retaining mesh. The opposite open side was covered with a closeable sleeve made of a tubular, open-weave, mosquito-retaining fabric well known in the art as “stockinet.” For any given test, the test cage normally contained from 250 to 350 female mosquitoes.
The test cage was placed in the air stream with the test panel facing and perpendicular to the direction of flow of the air streams of the olfactometer. In order to allow the mosquitoes to become activated by the carbon dioxide of the air streams, the test cage first was placed in the olfactometer for an initial 5 minute conditioning exposure. The test cage then was removed from the olfactometer for 3 minutes and then placed back in the olfactometer for a second 5 minute conditioning exposure. The test cage was again removed from the olfactometer for 3 minutes, during which time a control filter paper test substrate was inserted within the glass cylinder of the olfactometer. The test cage was then placed on the olfactometer for a 10 minute control exposure. The same procedure was repeated, using each time a filter paper test substrate impregnated with increasing amounts of active insect control ingredient. […]

[4] = Volatility index calculation (concentration in air from vapor pressure); type: physicochemical; details: for CONCENTRATION IN AIR: calculated from vapor pressure by ideal gas equation, 20 to 25° C.; for VOLATILITY INDEX: concentration in the air relative to DEET at 20 to 25° C.

Compound | ACTIVITY INDEX [1] | practical insect control as defined (minimum practical control standard) [2] | mg to reach RD90 [3] | WEIGHT INDEX [3] | CONCENTRATION IN AIR [4] | VOLATILITY INDEX [4]
COP(=O)(OC)OC=C(Cl)Cl [DDVP] | 0.60 | achieved | 40 milligrams/filter paper test substrate | 0.42 | 2.63 × 10^−5 grams per liter | 1.53
C=CCC1=C(C)C(OC(=O)[C@@H]2[C@@H](C=C(C)C)C2(C)C)CC1=O (some centres unmarked) [Bioallethrin] | 0.0049 |  | 5.5 milligrams/filter paper test substrate | 0.058 | 1.46 × 10^−6 grams per liter | 0.085
CNC(=O)Oc1ccccc1OC(C)C [Propoxur (Baygon), Propoxur] |  |  | >120 milligrams/filter paper test substrate | >1.26 |  | 
CCN(CC)C(=O)c1cccc(C)c1 [DEET, N,N-diethyl-meta-toluamide] | 1.00 |  | 95 milligrams/filter paper test substrate | 1.00 | 1.72 × 10^−5 grams per liter | 1.00
CC1(C)C(C=C(Cl)Cl)C1C(=O)OC(C#N)c1ccc(F)c(Oc2ccccc2)c1 (centres unmarked) [Cyfluthrin] |  |  | >1000 milligrams/filter paper test substrate | >10.5 | <7.11 × 10^−9 grams per liter | <0.00041
C#CC(OC(=O)C1C(C=C(C)C)C1(C)C)/C(C)=C/CC (centres unmarked) [Vaporthrin] | 0.033 | achieved | 5.3 milligrams/filter paper test substrate | 0.058 | 9.75 × 10^−6 grams per liter | 0.567
C=CCC1=C(C)C(OC(=O)[C@@H]2[C@@H](C=C(C)C)C2(C)C)CC1=O (some centres unmarked) [Esbiothrin] | 0.0146 | achieved | 4.5 milligrams/filter paper test substrate | 0.047 | 5.35 × 10^−6 grams per liter | 0.311
CC(C)=CC1C(C(=O)OC(C#N)c2cccc(Oc3ccccc3)c2)C1(C)C (centres unmarked) [Cyphenothrin] | ˜0.011 |  | ˜1000 milligrams/filter paper test substrate | ˜10.5 | 1.85 × 10^−8 grams per liter | 0.0011
Cc1c(F)c(F)c(COC(=O)[C@@H]2[C@H](/C=C(\Cl)C(F)(F)F)C2(C)C)c(F)c1F (racemic) [Tefluthrin] | 0.011 |  | 1.3 milligrams/filter paper test substrate | 0.014 | 1.37 × 10^−5 grams per liter | 0.797
CC1(C)C(C=C(Cl)Cl)C1C(=O)OCc1cccc(Oc2ccccc2)c1 (centres unmarked) [Permethrin] | >0.004 |  | >1000 milligrams/filter paper test substrate | >10.5 | 7.11 × 10^−9 grams per liter | 0.00041
C=CCC1=C(C)C(OC(=O)C2C(C=C(C)C)C2(C)C)CC1=O (centres unmarked) [Allethrin (90% active), Allethrin] | 0.0095 |  | 8.0 milligrams/filter paper test substrate | 0.085 | 1.92 × 10^−6 grams per liter | 0.112
Pentecychlothrin [Pentecychlothrin (Zhong X1)] | 0.0018 |  | 8.1 milligrams/filter paper test substrate | 0.085 | 3.64 × 10^−7 grams per liter | 0.021
